Article PMC6124754, “Characterization of new, efficient Mycobacterium tuberculosis topoisomerase-I inhibitors and their interaction with human ABC multidrug transporters” (PLoS ONE, 2018)
Values after ≈ are worked out from the molar mass of the structure shown. “Also recorded” adds a separate entry of the source.

Experiments:
H37Rv Mtb strain = experiment: H37Rv growth inhibition, resazurin reduction microplate assay (REMA); type: cell-based, Mycobacterium tuberculosis; details: for Toxicity in H37Rv assay (summary): S6 summary table
parental A431 cell line = experiment: Cytotoxicity, PrestoBlue 72 h, parental A431; type: cell-based, human; details: Non-toxic = not toxic up to 20 μM
Description: (§1) The toxic effects of the selected MtTopo-I inhibitory Vichem compounds were tested in three cell lines, HFF (human foreskin fibroblast), HEK293 (human embryonic kidney) and A431 (human epidermoid carcinoma) cell lines, obtained from ATCC. Establishment of ABC transporter-expressing A431cell lines was achieved by retroviral transduction of the cells as described previously.
(§2) For cytotoxicity measurements the cells were seeded in a 96-well culture plate at 5,000 cells/well (A431, HEK293) or 6000 cells/well (HFF) and incubated overnight. […] After 72 hours of incubation viability was assessed by PrestoBlue® assay (Invitrogen). IC50 values were obtained by sigmoidal curve fitting in the GraphPad Prism software. All experiments were performed in triplicates and repeated at least in three independent experiments. DMSO, used as solvent of the compounds, had no effect on viability at the applied concentration.

[1] = tested on: HFF, HEK293 and A431 cell lines; type: cell-based, human; details: for Toxicity in mammalian cell lines (summary): human, 72 h
Description: as §1, §2

human ABCB1 [2] = molecular target: T1, human ABCB1 (Homo sapiens, UniProt P08183); experiment: Cellular transport assay, Calcein-AM uptake in ABCB1-overexpressing PLB cells; type: cell-based; details: for Effect on ABCB1 mediated transport (in words): PLB cells, compound 5 μM; for ABC transporter transport assay, ABCB1 (summary): S6 summary table; on ABC transporter transport assay, ABCB1 (summary): key: 0: no observed effect; +: effect observed in the assay; In the ATPase assay showing only inhibition, the - sign is applied
Description: (§3) For cellular transport assays, mammalian PLB (lymphoblastoid) cell lines, overexpressing ABCB1 or ABCG2 were used. The parental PLB cell line was purchased from ATCC, and ABCB1 or ABCG2 overexpressing cell lines were established by using lentiviral vectors for human ABC transporters as described earlier in [29]. The transport assays were carried out in 96-well plates. 1x10^5 cells were incubated in the presence of 0.1 μM Calcein-AM or 1 μM DCV (Dye Cycler Violet) for the ABCB1 and for the ABCG2 assays, respectively. The assay was performed in HPMI medium (NaCl 120 mM, KCl 5 mM, MgCl2 0.4 mM, CaCl2 0.04 mM, HEPES 10 mM, NaHCO3 10 mM, glucose 10 mM, Na2HPO4 5 mM; pH 7.4). Fluorescence of the cells was detected using a Victor X3 plate reader (for Calcein, exc. at 485 nm, em. at 535 nm) or the Enspire 2300 (Perkin Elmer) plate reader (for DCV, exc. at 360 nm, em. at 440 nm). Kinetics of fluorescence intensity changes were analyzed to determine relative inhibition, compared to that of a reference agent, providing full inhibition of the ABC transporter. Two of the Vichem compounds examined (VCC979812 and VCC38977) were not compatible with the DCV uptake assay because of their intrinsic fluorescence, therefore for these two compounds ABCG2 transport inhibition was characterized by following mitoxantrone uptake. Mitoxantrone uptake was measured by flow cytometry (BD FACSCanto at 633 nm) by 20 minutes incubation in the presence of 7.5 μM mitoxantrone. Each compound was measured in at least three independent experiments with three parallels in each case. DMSO, used as a solvent of compounds had no effect in this assay at the applied concentration.

MtTopo-I = molecular target: T2, MtTopo-I (Mycobacterium tuberculosis, UniProt P9WG49); experiment: DNA relaxation assay of supercoiled pUC18 DNA by MtTopo-I; type: biochemical; details: minimum concentration providing complete inhibition
T2 construct: made in house; host or cells: E. coli

human ABCG2 [3] = molecular target: T3, human ABCG2 (Homo sapiens, UniProt Q9UNQ0); experiment: Vanadate-sensitive ATPase activity assay in Sf9 membrane vesicles, ABCG2; type: biochemical; parameters: made in house; host or cells: Sf9 insect cells (baculovirus), membrane vesicles; ABCG2 ATPase, concentration at Vmax: unit not given here; details: for ABCG2 ATPase, concentration at Vmax: concentration at which Vmax was seen; for ABCG2 ATPase Vmax: vanadate-sensitive ATPase, from dose-response curves, basal 22±1.4
T3 sequence (Q9UNQ0 1-655): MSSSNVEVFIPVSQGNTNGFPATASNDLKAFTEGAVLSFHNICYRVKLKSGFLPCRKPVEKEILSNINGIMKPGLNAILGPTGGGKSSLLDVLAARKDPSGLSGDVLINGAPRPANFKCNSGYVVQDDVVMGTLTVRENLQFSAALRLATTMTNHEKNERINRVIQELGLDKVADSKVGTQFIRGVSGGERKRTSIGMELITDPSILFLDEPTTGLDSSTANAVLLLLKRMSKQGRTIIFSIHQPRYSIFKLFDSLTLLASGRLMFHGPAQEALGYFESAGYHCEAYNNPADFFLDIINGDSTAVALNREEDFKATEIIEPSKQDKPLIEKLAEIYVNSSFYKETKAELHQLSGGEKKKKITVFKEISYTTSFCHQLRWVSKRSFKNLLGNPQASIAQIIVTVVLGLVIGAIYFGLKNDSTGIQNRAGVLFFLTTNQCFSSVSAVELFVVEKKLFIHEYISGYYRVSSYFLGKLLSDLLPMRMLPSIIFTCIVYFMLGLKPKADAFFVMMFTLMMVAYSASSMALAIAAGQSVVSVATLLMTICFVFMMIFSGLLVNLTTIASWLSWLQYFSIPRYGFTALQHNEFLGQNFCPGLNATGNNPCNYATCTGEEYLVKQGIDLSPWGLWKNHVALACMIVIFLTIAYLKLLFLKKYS

HEK293 cell line = experiment: Cytotoxicity, PrestoBlue 72 h, HEK293; type: cell-based, human; details: Non-toxic = not toxic up to 20 μM
Description: as §1, §2

human ABCB1 [4] = molecular target: T1, human ABCB1; experiment: Vanadate-sensitive ATPase activity assay in Sf9 membrane vesicles, ABCB1; type: biochemical; parameters: made in house; host or cells: Sf9 insect cells (baculovirus), membrane vesicles; ABCB1 ATPase Vmax: unit not given here; details: for ABCB1 ATPase, concentration at Vmax: concentration at which Vmax was seen; for ABCB1 ATPase Vmax: vanadate-sensitive ATPase, from dose-response curves, basal 5.7±0.7; on ABC transporter ATPase assay, ABCB1 (summary): key: 0: no observed effect; +: effect observed in the assay; In the ATPase assay showing only inhibition, the - sign is applied
human ABCG2 [5] = molecular target: T3, human ABCG2; experiment: Cellular transport assay, DCV or mitoxantrone uptake in ABCG2-overexpressing PLB cells; type: cell-based; parameters: expressed in transfected cells; host or cells: PLB (human lymphoblastoid) cells, lentiviral transduction; details: for Effect on ABCG2 mediated transport (in words): PLB cells, compound 5 μM; for ABC transporter transport assay, ABCG2 (summary): S6 summary table; on ABC transporter transport assay, ABCG2 (summary): key: 0: no observed effect; +: effect observed in the assay; In the ATPase assay showing only inhibition, the - sign is applied
Description: as §3

HFF cell line = experiment: Cytotoxicity, PrestoBlue 72 h, HFF; type: cell-based, human; details: Non-toxic = not toxic up to 20 μM
Description: as §1, §2

T1 sequence (P08183 whole entry): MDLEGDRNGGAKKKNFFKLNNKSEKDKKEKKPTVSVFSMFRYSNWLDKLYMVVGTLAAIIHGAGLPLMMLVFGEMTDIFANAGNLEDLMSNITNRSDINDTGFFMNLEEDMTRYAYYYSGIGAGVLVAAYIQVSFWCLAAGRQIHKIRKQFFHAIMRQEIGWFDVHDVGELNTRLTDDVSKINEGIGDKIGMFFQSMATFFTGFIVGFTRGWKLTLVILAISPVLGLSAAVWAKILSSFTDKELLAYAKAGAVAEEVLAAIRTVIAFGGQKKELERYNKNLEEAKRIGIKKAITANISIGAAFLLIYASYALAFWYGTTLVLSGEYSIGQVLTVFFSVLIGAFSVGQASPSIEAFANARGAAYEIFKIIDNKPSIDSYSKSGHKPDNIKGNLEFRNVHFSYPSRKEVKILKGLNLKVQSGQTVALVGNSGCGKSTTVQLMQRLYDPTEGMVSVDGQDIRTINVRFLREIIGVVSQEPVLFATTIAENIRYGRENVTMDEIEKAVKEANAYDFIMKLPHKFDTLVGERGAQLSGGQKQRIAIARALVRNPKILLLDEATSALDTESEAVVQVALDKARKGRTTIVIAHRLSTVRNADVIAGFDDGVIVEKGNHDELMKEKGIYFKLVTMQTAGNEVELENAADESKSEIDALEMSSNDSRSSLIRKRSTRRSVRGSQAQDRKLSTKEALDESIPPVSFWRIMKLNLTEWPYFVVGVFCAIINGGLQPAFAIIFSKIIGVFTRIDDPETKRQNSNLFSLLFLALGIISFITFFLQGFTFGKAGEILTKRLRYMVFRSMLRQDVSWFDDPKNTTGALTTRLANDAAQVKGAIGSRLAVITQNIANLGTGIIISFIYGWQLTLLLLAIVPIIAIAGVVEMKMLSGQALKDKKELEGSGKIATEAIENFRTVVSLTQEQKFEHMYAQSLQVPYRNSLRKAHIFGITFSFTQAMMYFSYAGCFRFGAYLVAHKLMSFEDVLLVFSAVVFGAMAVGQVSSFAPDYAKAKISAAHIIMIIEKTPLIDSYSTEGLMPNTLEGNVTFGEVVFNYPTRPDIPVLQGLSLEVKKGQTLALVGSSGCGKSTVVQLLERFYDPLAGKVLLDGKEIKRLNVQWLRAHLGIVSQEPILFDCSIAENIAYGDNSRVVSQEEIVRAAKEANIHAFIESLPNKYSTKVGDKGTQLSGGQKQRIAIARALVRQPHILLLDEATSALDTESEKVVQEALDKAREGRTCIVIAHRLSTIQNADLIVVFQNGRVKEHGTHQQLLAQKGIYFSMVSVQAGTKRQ
T2 sequence (P9WG49 whole entry): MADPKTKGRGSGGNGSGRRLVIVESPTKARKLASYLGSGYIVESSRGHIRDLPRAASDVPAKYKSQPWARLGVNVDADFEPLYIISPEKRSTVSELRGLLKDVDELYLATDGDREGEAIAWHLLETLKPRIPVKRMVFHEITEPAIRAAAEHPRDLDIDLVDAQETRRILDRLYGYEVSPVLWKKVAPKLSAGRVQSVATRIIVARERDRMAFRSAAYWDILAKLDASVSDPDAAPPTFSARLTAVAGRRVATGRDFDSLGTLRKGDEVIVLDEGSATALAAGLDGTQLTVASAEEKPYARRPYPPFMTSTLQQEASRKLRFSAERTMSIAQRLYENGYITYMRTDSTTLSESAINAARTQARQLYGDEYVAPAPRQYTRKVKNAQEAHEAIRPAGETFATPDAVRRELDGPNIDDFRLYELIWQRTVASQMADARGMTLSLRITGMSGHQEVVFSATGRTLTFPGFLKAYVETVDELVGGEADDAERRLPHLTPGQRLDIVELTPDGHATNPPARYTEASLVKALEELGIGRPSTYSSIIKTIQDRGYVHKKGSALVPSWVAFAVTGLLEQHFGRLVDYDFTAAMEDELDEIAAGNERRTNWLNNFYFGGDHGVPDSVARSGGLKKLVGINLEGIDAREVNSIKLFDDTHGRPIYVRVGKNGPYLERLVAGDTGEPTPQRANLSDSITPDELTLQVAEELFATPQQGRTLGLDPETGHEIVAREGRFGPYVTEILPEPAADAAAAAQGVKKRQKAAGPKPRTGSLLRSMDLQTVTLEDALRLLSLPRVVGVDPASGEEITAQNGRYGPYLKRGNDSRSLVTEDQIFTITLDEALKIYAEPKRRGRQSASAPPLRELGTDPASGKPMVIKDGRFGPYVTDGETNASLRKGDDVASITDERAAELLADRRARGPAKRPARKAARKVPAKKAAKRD

Compound | Toxicity in H37Rv assay (summary) (H37Rv Mtb strain) | Toxicity in parental A431 cell line, IC50 (parental A431 cell line) | Toxicity in mammalian cell lines (summary) [1] | Effect on ABCB1 mediated transport (in words) (human ABCB1 [2]) | ABC transporter transport assay, ABCB1 (summary) (human ABCB1 [2]) | Complete inhibition of MtTopoI (MtTopo-I) [µM] | ABCG2 ATPase, concentration at Vmax (human ABCG2 [3]) | ABCG2 ATPase Vmax (human ABCG2 [3]) | Toxicity in HEK293 cell line, IC50 (HEK293 cell line) | ABCB1 ATPase, concentration at Vmax (human ABCB1 [4]) [µM] | ABCB1 ATPase Vmax (human ABCB1 [4]) | Effect on ABCG2 mediated transport (in words) (human ABCG2 [5]) | ABC transporter transport assay, ABCG2 (summary) (human ABCG2 [5]) | Toxicity in HFF cell line, IC50 (HFF cell line) | other results
Brc1c2ccccc2c(Br)c2nc(-c3ccco3)c(-c3ccco3)nc12 [VCC450327] | 0 | Non-toxic | 0 | no effect | 0 | 0.1 | 0.4 | 27.2±0.8 | Non-toxic | 0.19 | 9.6±1.3 | only moderately influence; also recorded: only a slight effect | + | Non-toxic | MIC90 of compounds in H37Rv growth test (H37Rv Mtb strain; minimum concentration providing 90% growth inhibition, 20 to 0.04 μM, N.I. = no inhibition observed up to 20 μM): N.I.; Toxicity in human cell lines (in words) [1]: non-toxic
Cc1ccc(C)c(SCc2nc3cc4ccccc4cc3nc2CSc2cc(C)ccc2C)c1 [VCC891909] | + | Non-toxic | 0 | no such transporter inhibitory effect | 0 | 7.5 to 10 | 0.01 | 25.3±5 | Non-toxic | 3 | 7.8±1.2 | no such transporter inhibitory effect | 0 | Non-toxic+ | MIC90 (H37Rv Mtb strain; Mycobacterium tuberculosis, H37RV, minimum concentration providing 90% growth inhibition, 20 to 0.04 μM, N.I. = no inhibition observed up to 20 μM, read-out: MIC90 of compounds in H37Rv growth test): 10.4 µM (≈ 5 µg/mL); Growth inhibition of H37Rv mycobacteria (in words) (H37Rv Mtb strain; tested up to 20 μM): Mtb growth inhibitory effect; ABC transporter ATPase assay, ABCG2 (summary) (human ABCG2 [3]; S6 summary table): 0; Effect on ABCG2-ATPase activity (in words) (human ABCG2 [3]; Sf9 membrane vesicles, 0.1–10 μM for stimulation, 50 μM for inhibition): no measurable effect; ABC transporter ATPase assay, ABCB1 (summary) (human ABCB1 [4]; S6 summary table): 0; Effect on ABCB1-ATPase activity (in words) (human ABCB1 [4]; Sf9 membrane vesicles, 0.1–10 μM for the stimulation in b53): no measurable effect
O=c1c(O)c(-c2ccc(O)c(O)c2)oc2cc(O)cc(O)c12 [quercetin, reference compound] | – | – | – | – | – | – | – | 38.5±1 | – | – | – | – | – | – | –
